Data as given in patent US8138196B2, “Antifungal wallboards and building materials and methods for the production thereof” (Syngenta Crop Protection, Inc., priority 2005, dated 2012).

Assays:
Type in all cases: cell-based
[1] = tested on: Aureobasidium pullulans (ATCC 15233); assay: Example 3 liquid culture assay on 24 well plates, solo and 2-way mixtures
Description: (§1) Alternaria tenuissima (DSM 63360), Penicillium chrysogenum (DSM 895), Stachybotrys chartarum (DSM2144), Aspergillus niger (DSM 63263), Aspergillus versicolor (DSM 1943) and Aureobasidium pullulans (ATCC 15233) were separately cultivated on PDA media to […] sporulation. Spore suspensions were produced for each fungi. Spore concentrations of approx. 100.000 spores/ml were used.
(§2) Test method used: liquid culture assay on 24 well plates.
(§3) For solo (i.e. single) ai testing the formulated fungicide (100 ul) was filled into the 24 well plates and 100 ul distilled water was added. Afterwards 800 ul of 0.3% AE media was added to the plate. The spore suspension of the specific fungi was added to this media in advance containing approx. 100,000 spores/ml. The 24 well plates were sealed and incubated at 24° C.
(§4) Dependent on the growth properties of each organisms, the evaluation was done after 3 to 6 days, when the surface of the check well was covered with mycelium. The evaluation was performed by assessing the growth of the fungi related to the check growth. The results are expressed as % activity relative to the check (values of 0-100% growth). Afterwards the results were converted in % O growth inhibition.
(§5) For synergism testing of the 2-way mixtures 100 ul of each fungicide were filled into 24 well plates and 800 ul of 0.3% AE media containing the spore suspension was added. Different ratios of the 2 fungicide rates were tested at the same time.
(§6) For the mixtures of different fungicides the synergism was calculated based on the Colby equation, which is described below: […]
(§7) The fungicidal action to be expected, We, for a given combination of two fungicides can be calculated as follows (see COLBY, S. R. “Calculating synergistic and antagonistic response of herbicide combinations”. Weeds 15, pages 20-22; 1967): We=X+[Y×(100−X)/100] wherein: • X=% activity in the case of treatment with the compound of formula I at rate x, in comparison with untreated control (=0%). • Y=% activity in the case of treatment with a compound of formula II at rate y, in comparison with untreated control. • We=expected activity (% activity in comparison with untreated control) after treatment with the compound of formula I and a compound of formula II at a rate of x+y kg of active ingredient.
(§8) If the activity actually observed is greater than the expected value We (factor observed activity/expected activity >1.2), there is a synergistic effect.

[2] = tested on: Alternaria tenuissima (DSM 63360); assay: as above
Description: as §1, §2, §3, §4, §5, §6, §7, §8

[3] = tested on: Penicillium chrysogenum (DSM 895); assay: as above; settings: test 006-2005
Description: as §1, §2, §3, §4, §5, §6, §7, §8

[4] = tested on: Stachybotrys chartarum (DSM 2144); assay: Example 4 liquid culture assay on 24 and 48 well plates, 3 way mixtures; settings: test 015-2005, S. chartarum
Experimental: […] Spore suspensions were produced for each fungus. Spore concentrations of approx. 100,000 spores/ml were used.
Test method used: liquid culture assay on 24 and 48 well plates respectively.
For testing of the 3 way mixtures each of the formulated fungicide (100 ul) was filled into the 24 and 48 well plates respectively. Afterwards 700 ul of 0.3% AE media was added to the plate. The spore suspension of the specific fungi was added to this media in advance containing approx. 100,000 spores/ml. For testing the solo compounds the equivalent of distilled water was added instead of the formulated fungicide volume of the mixing partners. The plates were then sealed and incubated at 24° C.
as §4, with “%” for “% O”
For the mixtures of different fungicides the synergism was calculated based on the Colby equation, which is described above.

[5] = test 006-2005, rate (AZO) 0.05 mg ai/l
[6] = test 006-2005, rate (AZO) 0.2 mg ai/l
[7] = test 006-2005, rate (AZO) 0.8 mg ai/l

## CO/C=C(/C(=O)OC)c1ccccc1Oc1cc(Oc2ccccc2C#N)ncn1 [Azoxystrobin]
[1]; [5]
  inh % (AZO alone): 0%
[1]; [6]
  inh % (AZO alone): 10%
[1]; [7]
  inh % (AZO alone): 10%
[1]; test 006-2005, rate (AZO) 1.6 mg ai/l
  inh % (AZO alone): 10%
[1]; test 006-2005, rate (AZO) 3.12 mg ai/l
  inh % (AZO alone): 10%
[1]; test 006-2005, rate (AZO) 12.5 mg ai/l
  inh % (AZO alone): 10%
[1]; test 015-2005, rate (AZO) 12.5 mg ai/l
  inh % (AZO alone): 0%
[1]; test 015-2005, rate (AZO) 25 mg ai/l
  inh % (AZO alone): 0%
[1]; test 015-2005, rate (AZO) 50 mg ai/l
  inh % (AZO alone): 0%
[1]; test 015-2005, rate (AZO) 100 mg ai/l
  inh % (AZO alone): 0%
[2]; [5]
  inh % (AZO alone): 10%
[2]; [6]
  inh % (AZO alone): 10%
[2]; [7]
  inh % (AZO alone): 10%
[2]; test 006-2005, rate (AZO) 100 mg ai/l
  inh % (AZO alone): 30%
[2]; test 015-2005, rate (AZO) 0.4 mg ai/l
  inh % (AZO alone): 10%
[2]; test 015-2005, rate (AZO) 0.8 mg ai/l
  inh % (AZO alone): 10%
[2]; test 015-2005, rate (AZO) 1.6 mg ai/l
  inh % (AZO alone): 10%
[2]; test 015-2005, rate (AZO) 3.1 mg ai/l
  inh % (AZO alone): 10%
[2]; test 015-2005, rate (AZO) 6.25 mg ai/l
  inh % (AZO alone): 10%
[3]; rate (AZO) 0.05 mg ai/l
  inh % (AZO alone): 10%
[3]; rate (AZO) 0.2 mg ai/l
  inh % (AZO alone): 0%
[3]; rate (AZO) 0.8 mg ai/l
  inh % (AZO alone): 10%
[3]; rate (AZO) 1.6 mg ai/l
  inh % (AZO alone): 10%
[3]; rate (AZO) 3.12 mg ai/l
  inh % (AZO alone): 10%
[3]; rate (AZO) 12.5 mg ai/l
  inh % (AZO alone): 10%
[3]; rate (AZO) 50 mg ai/l
  inh % (AZO alone): 10%
[3]; rate (AZO) 100 mg ai/l
  inh % (AZO alone): 10%
[4]; AZO 0.8 mg ai/l
  inh % (AZO alone): 10%
[4]; AZO 1.6 mg ai/l
  inh % (AZO alone): 10%
[4]; AZO 3.1 mg ai/l
  inh % (AZO alone): 30%
